Holding throughout (format): functional
For test [1], the system named is Staphylococcus aureus. Description: Antibacterial activity against Staphylococcus aureus assessed as diameter of inhibition zone at 12.5 ug/well after 24 hrs by agar well diffusion method. To be noted: for zone of inhibition at 12.5 µg/disc: read-out: DIZ. A general note: Agar diffusion results depend on both activity and mobility in agar.
The test system of test [2] is Pseudomonas aeruginosa. As to the kind of experiment: Antibacterial activity against Pseudomonas aeruginosa after 24 hrs by turbidity-based broth dilution assay.
In test [3] the test system is Bacillus subtilis. As to the kind of experiment: Antibacterial activity against Bacillus subtilis assessed as diameter of inhibition zone at 12.5 ug/well after 24 hrs by agar well diffusion method. The following applies: for zone of inhibition at 12.5 µg/disc: read-out: DIZ.
Test [4] has as its system Bacillus subtilis. Description: Antibacterial activity against Bacillus subtilis assessed as diameter of inhibition zone at 50 ug/well after 24 hrs by agar well diffusion method. To be noted: for zone of inhibition at 50 µg/disc: read-out: DIZ.
Test [5] concerns Pseudomonas aeruginosa. As to the kind of experiment: Antibacterial activity against Pseudomonas aeruginosa assessed as diameter of inhibition zone at 12.5 ug/well after 24 hrs by agar well diffusion method. The following applies: for zone of inhibition at 12.5 µg/disc: read-out: DIZ.
Test [6] concerns Bacillus subtilis. Description: Antibacterial activity against Bacillus subtilis assessed as diameter of inhibition zone at 25 ug/well after 24 hrs by agar well diffusion method. To be noted: for zone of inhibition at 25 µg/disc: read-out: DIZ.
Test [7] relates to Staphylococcus aureus. As to the kind of experiment: Antibacterial activity against Staphylococcus aureus after 24 hrs by turbidity-based broth dilution assay. Background: Broth dilution looks for growth in wells or tubes with falling amounts of substance.
Test [8] has as its system Staphylococcus aureus. Description: Antibacterial activity against Staphylococcus aureus assessed as diameter of inhibition zone at 50 ug/well after 24 hrs by agar well diffusion method. To be noted: for zone of inhibition at 50 µg/disc: read-out: DIZ.
Test [9] has as its system Staphylococcus aureus. As to the kind of experiment: Antibacterial activity against Staphylococcus aureus assessed as diameter of inhibition zone at 25 ug/well after 24 hrs by agar well diffusion method. To be noted: for zone of inhibition at 25 µg/disc: read-out: DIZ.
In test [10] the test system is Staphylococcus aureus. Description: Antibacterial activity against Staphylococcus aureus assessed as diameter of inhibition zone at 100 ug/well after 24 hrs by agar well diffusion method. To be noted: for zone of inhibition at 100 µg/disc: read-out: DIZ.
Test [11] deals with Pseudomonas aeruginosa. Description: Antibacterial activity against Pseudomonas aeruginosa assessed as diameter of inhibition zone at 50 ug/well after 24 hrs by agar well diffusion method. To be noted: for zone of inhibition at 50 µg/disc: read-out: DIZ.
The test system of test [12] is Klebsiella pneumoniae. As to the kind of experiment: Antibacterial activity against Klebsiella pneumoniae assessed as diameter of inhibition zone at 100 ug/well after 24 hrs by agar well diffusion method. The following applies: for zone of inhibition at 100 µg/disc: read-out: DIZ.
In test [13] the test system is Pseudomonas aeruginosa. Description: Antibacterial activity against Pseudomonas aeruginosa assessed as diameter of inhibition zone at 100 ug/well after 24 hrs by agar well diffusion method. The following applies: for zone of inhibition at 100 µg/disc: read-out: DIZ.
Test [14] deals with Klebsiella pneumoniae. Description: Antibacterial activity against Klebsiella pneumoniae assessed as diameter of inhibition zone at 12.5 ug/well after 24 hrs by agar well diffusion method. The following applies: for zone of inhibition at 12.5 µg/disc: read-out: DIZ.
The subject of test [15] is Bacillus subtilis. Description: Antibacterial activity against Bacillus subtilis assessed as diameter of inhibition zone at 100 ug/well after 24 hrs by agar well diffusion method. The following applies: for zone of inhibition at 100 µg/disc: read-out: DIZ.
Test [16] relates to Klebsiella pneumoniae. Description: Antibacterial activity against Klebsiella pneumoniae assessed as diameter of inhibition zone at 25 ug/well after 24 hrs by agar well diffusion method. The following applies: for zone of inhibition at 25 µg/disc: read-out: DIZ.
The subject of test [17] is Klebsiella pneumoniae. Description: Antibacterial activity against Klebsiella pneumoniae after 24 hrs by turbidity-based broth dilution assay.
Test [18] relates to Klebsiella pneumoniae. As to the kind of experiment: Antibacterial activity against Klebsiella pneumoniae assessed as diameter of inhibition zone at 50 ug/well after 24 hrs by agar well diffusion method. The following applies: for zone of inhibition at 50 µg/disc: read-out: DIZ.
Test [19] deals with Pseudomonas aeruginosa. Description: Antibacterial activity against Pseudomonas aeruginosa assessed as diameter of inhibition zone at 25 ug/well after 24 hrs by agar well diffusion method. The following applies: for zone of inhibition at 25 µg/disc: read-out: DIZ.
The subject of test [20] is Aspergillus niger. As to the kind of experiment: Antifungal activity against Aspergillus niger assessed as diameter of inhibition zone at 50 ug/well after 48 hrs by agar well diffusion method.
Test [21] relates to Aspergillus niger. As to the kind of experiment: Antifungal activity against Aspergillus niger assessed as diameter of inhibition zone at 12.5 ug/well after 48 hrs by agar well diffusion method.
The test system of test [22] is Aspergillus niger. As to the kind of experiment: Antifungal activity against Aspergillus niger assessed as diameter of inhibition zone at 100 ug/well after 48 hrs by agar well diffusion method.
In test [23] the test system is Penicillium chrysogenum. Description: Antifungal activity against Penicillium chrysogenum assessed as diameter of inhibition zone at 12.5 ug/well after 48 hrs by agar well diffusion method.
Test [24] concerns Penicillium chrysogenum. As to the kind of experiment: Antifungal activity against Penicillium chrysogenum assessed as diameter of inhibition zone at 100 ug/well after 48 hrs by agar well diffusion method.
Test [25] relates to Penicillium chrysogenum. Description: Antifungal activity against Penicillium chrysogenum assessed as diameter of inhibition zone at 50 ug/well after 48 hrs by agar well diffusion method.
Test [26] deals with Aspergillus niger. As to the kind of experiment: Antifungal activity against Aspergillus niger assessed as diameter of inhibition zone at 25 ug/well after 48 hrs by agar well diffusion method.
In test [27] the test system is Penicillium chrysogenum. As to the kind of experiment: Antifungal activity against Penicillium chrysogenum assessed as diameter of inhibition zone at 25 ug/well after 48 hrs by agar well diffusion method.

Active and inactive are the calls of the source. The rule behind the calls is not given here.

With `O=C(N[C@H](CO)[C@H](O)c1ccc([N+](=O)[O-])cc1)C(Cl)Cl` [CHLORAMPHENICOL], the zone of inhibition at 12.5 µg/disc turned out to be 30 mm with Staphylococcus aureus [1], 32 mm in the test on Bacillus subtilis [3], 25 mm in the test on Pseudomonas aeruginosa [5] and 38 mm in the test on Klebsiella pneumoniae [14]. In addition, the results for the MIC in the test with Pseudomonas aeruginosa [2], with Staphylococcus aureus [7] and with Klebsiella pneumoniae [17] were 6.25 µg, 6.25 µg and 12.5 µg, respectively. For the same molecule, the zone of inhibition at 50 µg/disc in the test on Bacillus subtilis [4] came out at 36 mm; in the test on Staphylococcus aureus [8], 35 mm; with Pseudomonas aeruginosa [11], 29 mm; with Klebsiella pneumoniae [18] it was 42 mm. The zone of inhibition at 25 µg/disc in the test on Bacillus subtilis [6] is 34 mm; in the test on Staphylococcus aureus [9] it was 32 mm; with Klebsiella pneumoniae [16], 40 mm; in the test on Pseudomonas aeruginosa [19], 27 mm. The zone of inhibition at 100 µg/disc in the test on Staphylococcus aureus [10] came to 37 mm; in the test with Klebsiella pneumoniae [12], 44 mm; in the test on Pseudomonas aeruginosa [13], 32 mm; in the test on Bacillus subtilis [15], 40 mm.

In the case of `Cc1cc(SCc2nnc(-c3ccc(Br)cc3)s2)nc(SCc2nnc(-c3ccc(Br)cc3)s2)n1`, the zone of inhibition at 12.5 µg/disc in the test on Staphylococcus aureus [1] was determined as 11 mm; with Bacillus subtilis [3], 17 mm; with Pseudomonas aeruginosa [5], 19 mm; with Aspergillus niger [21] (read-out: DIZ) it was 22 mm; in the test with Penicillium chrysogenum [23] (read-out: DIZ) it was 13 mm; in the test with Klebsiella pneumoniae [14] it was 24 mm. Moreover, the zone of inhibition at 50 µg/disc in the test with Aspergillus niger [20] (read-out: DIZ) was 26 mm; in the test on Bacillus subtilis [4], 21 mm; in the test on Staphylococcus aureus [8], 15 mm; in the test on Pseudomonas aeruginosa [11], 25 mm; in the test with Penicillium chrysogenum [25] (read-out: DIZ) it was 17 mm; in the test on Klebsiella pneumoniae [18], 28 mm. Further, the zone of inhibition at 25 µg/disc came out at 19 mm in the test with Bacillus subtilis [6]; 13 mm with Staphylococcus aureus [9]; 26 mm in the test on Klebsiella pneumoniae [16]; 24 mm in the test on Aspergillus niger [26] (read-out: DIZ); 15 mm in the test with Penicillium chrysogenum [27] (read-out: DIZ); 23 mm in the test with Pseudomonas aeruginosa [19]. Further, the zone of inhibition at 100 µg/disc in the test with Aspergillus niger [22] (read-out: DIZ) was 30 mm; with Staphylococcus aureus [10] it was 17 mm; in the test on Klebsiella pneumoniae [12], 31 mm; in the test with Pseudomonas aeruginosa [13], 29 mm; in the test with Penicillium chrysogenum [24] (read-out: DIZ), 20 mm; with Bacillus subtilis [15], 24 mm.

For the molecule `COc1ccc(-c2nnc(CSc3cc(C)nc(SCc4nnc(-c5ccc(OC)cc5)o4)n3)o2)cc1`, the “diameter of the inhibition zone (DIZ)” value with Staphylococcus aureus [1], with Bacillus subtilis [3], in the test with Aspergillus niger [20], with Bacillus subtilis [4], with Pseudomonas aeruginosa [5] and in the test with Bacillus subtilis [6] was “inactive” throughout. Further, the “diameter of the inhibition zone (DIZ)” value in the test with Aspergillus niger [21], in the test with Staphylococcus aureus [8], with Staphylococcus aureus [9], in the test on Aspergillus niger [22], in the test with Staphylococcus aureus [10] and in the test on Pseudomonas aeruginosa [11] was “inactive” in each case. The “diameter of the inhibition zone (DIZ)” value with Klebsiella pneumoniae [12], in the test with Pseudomonas aeruginosa [13], in the test with Penicillium chrysogenum [23], in the test on Penicillium chrysogenum [24], in the test on Klebsiella pneumoniae [14] and in the test on Bacillus subtilis [15] was “inactive” throughout. Also, the “diameter of the inhibition zone (DIZ)” value in the test with Klebsiella pneumoniae [16], in the test on Penicillium chrysogenum [25], in the test on Aspergillus niger [26], in the test on Klebsiella pneumoniae [18], in the test on Penicillium chrysogenum [27] and with Pseudomonas aeruginosa [19] was “inactive” in each case.

The record behind these values is ChEMBL document CHEMBL4251634, “Synthesis and antimicrobial activity of pyrimidinyl 1,3,4-oxadiazoles, 1,3,4-thiadiazoles and 1,2,4-triazoles” (2018).
